# Assay results reported in the supplement of paper PMC10733146.
# Assays:
# Assay in all cases: viability relative to DMSO control (fraction); higher = less drug effect (more viable cells)
# Settings in all cases: 48 h
# [1] = tested on: primary MCL patient cells (S041)
# Procedure, shortened: (§1)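 Cells were incubated for 48 h at 37 °C and 5% CO2 in RPMI-1640 with penicillin/streptomycin, L-glutamine and human serum, at 4 × 10^4 cells per well in 384-well plates with compounds pre-plated at five concentrations, one well each. These were primary mononuclear tumour cells, fresh or cryopreserved, Ficoll-isolated from blood or bone marrow or obtained from processed lymph node. Viability values are CellTiter-Glo luminescence relative to the median of 16 inner DMSO wells.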
# [2] = tested on: primary AML patient cells (S011)
# Procedure, shortened: as §1
# [3] = tested on: primary AML patient cells (S055)
# Procedure, shortened: as §1
# [4] = tested on: primary B-PLL patient cells (S016)
# Procedure, shortened: as §1
# [5] = tested on: primary T-PLL patient cells (S008)
# Procedure, shortened: as §1
# [6] = tested on: primary AML patient cells (S009)
# Procedure, shortened: as §1
# [7] = tested on: primary FL patient cells (S087)
# Procedure, shortened: as §1
# [8] = tested on: primary AML patient cells (S060)
# Procedure, shortened: as §1
# [9] = tested on: primary AML patient cells (S081)
# Procedure, shortened: as §1
# [10] = tested on: primary MCL patient cells (S063)
# Procedure, shortened: as §1
# [11] = tested on: primary AML patient cells (S006)
# Procedure, shortened: as §1
# [12] = tested on: primary ALL patient cells (S088)
# Procedure, shortened: as §1
# [13] = tested on: primary DLBCL patient cells (S082)
# Procedure, shortened: as §1
# [14] = tested on: primary AML patient cells (S021)
# Procedure, shortened: as §1
smiles,measurement,setting,value
CCc1nc(C(N)=O)c(Nc2ccc(N3CCC(N4CCN(C)CC4)CC3)c(OC)c2)nc1NC1CCOCC1 [Gilteritinib],viability,[1]; 0.024 µM,0.934
same,viability,[1]; 0.12 µM,0.882
same,viability,[1]; 0.6 µM,0.705
same,viability,[1]; 3 µM,0.647
same,viability,[1]; 15 µM,0.406
same,viability,[2]; 0.024 µM,0.834
same,viability,[2]; 0.12 µM,0.755
same,viability,[2]; 0.6 µM,0.617
same,viability,[2]; 3 µM,0.841
same,viability,[2]; 15 µM,0.796
same,viability,[3]; 0.024 µM,1.04
same,viability,[3]; 0.12 µM,1.03
same,viability,[3]; 0.6 µM,0.573
same,viability,[3]; 3 µM,0.638
same,viability,[3]; 15 µM,0.821
same,viability,[4]; 0.024 µM,0.818
same,viability,[4]; 0.12 µM,0.819
same,viability,[4]; 0.6 µM,0.875
same,viability,[4]; 3 µM,0.911
same,viability,[4]; 15 µM,0.654
same,viability,[5]; 0.024 µM,0.952
same,viability,[5]; 0.12 µM,0.909
same,viability,[5]; 0.6 µM,0.886
same,viability,[5]; 3 µM,0.787
same,viability,[5]; 15 µM,0.935
same,viability,[6]; 0.024 µM,0.945
same,viability,[6]; 0.12 µM,0.865
same,viability,[6]; 0.6 µM,0.9
same,viability,[6]; 3 µM,0.675
same,viability,[6]; 15 µM,0.986
same,viability,[7]; 0.024 µM,1.09
same,viability,[7]; 0.12 µM,1.06
same,viability,[7]; 0.6 µM,0.865
same,viability,[7]; 3 µM,0.807
same,viability,[7]; 15 µM,0.422
same,viability,[8]; 0.024 µM,1
same,viability,[8]; 0.12 µM,1.06
same,viability,[8]; 0.6 µM,0.965
same,viability,[8]; 3 µM,0.663
same,viability,[8]; 15 µM,0.428
same,viability,[9]; 0.024 µM,0.968
same,viability,[9]; 0.12 µM,0.969
same,viability,[9]; 0.6 µM,0.947
same,viability,[9]; 3 µM,0.708
same,viability,[9]; 15 µM,0.599
same,viability,[10]; 0.024 µM,1.11
same,viability,[10]; 0.12 µM,1.13
same,viability,[10]; 0.6 µM,0.706
same,viability,[10]; 3 µM,0.42
same,viability,[10]; 15 µM,0.209
same,viability,[11]; 0.024 µM,0.393
same,viability,[11]; 0.12 µM,0.381
same,viability,[11]; 0.6 µM,0.382
same,viability,[11]; 3 µM,0.729
same,viability,[11]; 15 µM,0.563
same,viability,[12]; 0.024 µM,0.698
same,viability,[12]; 0.12 µM,0.545
same,viability,[12]; 0.6 µM,0.388
same,viability,[12]; 3 µM,0.414
same,viability,[12]; 15 µM,0.131
same,viability,[13]; 0.024 µM,1.14
same,viability,[13]; 0.12 µM,0.761
same,viability,[13]; 0.6 µM,0.409
same,viability,[13]; 3 µM,0.459
same,viability,[13]; 15 µM,0.476
same,viability,[14]; 0.024 µM,1.04
same,viability,[14]; 0.12 µM,1.07
same,viability,[14]; 0.6 µM,0.72
same,viability,[14]; 3 µM,0.754
same,viability,[14]; 15 µM,0.736
Nc1nc(Cl)nc2c1ncn2[C@@H]1O[C@H](CO)[C@@H](O)[C@@H]1F [Clofarabine],viability,[1]; 0.024 µM,0.862
same,viability,[1]; 0.12 µM,0.254
same,viability,[1]; 0.6 µM,0.0698
same,viability,[1]; 3 µM,0.0397
same,viability,[1]; 15 µM,0.0361
same,viability,[2]; 0.024 µM,0.762
same,viability,[2]; 0.12 µM,0.535
same,viability,[2]; 0.6 µM,0.299
same,viability,[2]; 3 µM,0.17
same,viability,[2]; 15 µM,0.0898
same,viability,[3]; 0.024 µM,0.951
same,viability,[3]; 0.12 µM,0.792
same,viability,[3]; 0.6 µM,0.677
same,viability,[3]; 3 µM,0.507
same,viability,[3]; 15 µM,0.446
same,viability,[4]; 0.024 µM,0.711
same,viability,[4]; 0.12 µM,0.332
same,viability,[4]; 0.6 µM,0.0601
same,viability,[4]; 3 µM,0.034
same,viability,[4]; 15 µM,0.0319
same,viability,[5]; 0.024 µM,0.989
same,viability,[5]; 0.12 µM,0.864
same,viability,[5]; 0.6 µM,0.64
same,viability,[5]; 3 µM,0.562
same,viability,[5]; 15 µM,0.551
same,viability,[6]; 0.024 µM,0.585
same,viability,[6]; 0.12 µM,0.541
same,viability,[6]; 0.6 µM,0.391
same,viability,[6]; 3 µM,0.381
same,viability,[6]; 15 µM,0.258
same,viability,[7]; 0.024 µM,0.823
same,viability,[7]; 0.12 µM,0.673
same,viability,[7]; 0.6 µM,0.587
same,viability,[7]; 3 µM,0.536
same,viability,[7]; 15 µM,0.547
same,viability,[8]; 0.024 µM,1.09
same,viability,[8]; 0.12 µM,1.06
same,viability,[8]; 0.6 µM,0.723
same,viability,[8]; 3 µM,0.402
same,viability,[8]; 15 µM,0.126
same,viability,[9]; 0.024 µM,1.08
same,viability,[9]; 0.12 µM,1.07
same,viability,[9]; 0.6 µM,0.861
same,viability,[9]; 3 µM,0.684
same,viability,[9]; 15 µM,0.415
same,viability,[10]; 0.024 µM,0.912
same,viability,[10]; 0.12 µM,0.736
same,viability,[10]; 0.6 µM,0.245
same,viability,[10]; 3 µM,0.0814
same,viability,[10]; 15 µM,0.0383
same,viability,[11]; 0.024 µM,0.759
same,viability,[11]; 0.12 µM,0.381
same,viability,[11]; 0.6 µM,0.351
same,viability,[11]; 3 µM,0.461
same,viability,[11]; 15 µM,0.489
same,viability,[12]; 0.024 µM,0.569
same,viability,[12]; 0.12 µM,0.254
same,viability,[12]; 0.6 µM,0.203
same,viability,[12]; 3 µM,0.173
same,viability,[12]; 15 µM,0.109
same,viability,[13]; 0.024 µM,0.834
same,viability,[13]; 0.12 µM,0.53
same,viability,[13]; 0.6 µM,0.377
same,viability,[13]; 3 µM,0.362
same,viability,[13]; 15 µM,0.319
same,viability,[14]; 0.024 µM,0.755
same,viability,[14]; 0.12 µM,0.425
same,viability,[14]; 0.6 µM,0.286
same,viability,[14]; 3 µM,0.21
same,viability,[14]; 15 µM,0.201
